{
  "source": "patent US20110059122A1",
  "about": "“Inhibition of the Survival of Oral Cavity Cancer by Cyclohexenone Compounds from Antrodia Camphorata” (GOLDEN BIOTECHNOLOGY CORPORATION, priority 2009, published 2011)",
  "tested_on": "oral cavity cancer cell line SCC-25",
  "experiment": "In vitro survival assay (MTT) for anti-oral cavity cancer effects",
  "assay_type": "cell-based",
  "conditions": "Homo sapiens, SCC-25 cells, 48 hours treatment, absorbance 570 nm, read-out: IC50 (half inhibition concentration), survival of oral cavity cancer cells",
  "experimental": "Inhibiting effects of oral cavity cancer cells by cyclohexenone compounds of Antrodia camphorata from example 1 were assessed according to the anticancer-drug screening model of National Cancer Institute (NCI). The compound 4-hydroxy-2,3-dimethoxy-6-methyl-5-(3,7,11-trimethyl-dodeca-2,6,10-trienyl)-cyclohex-2-enone from example 1 was added into the culture media of oral cavity cancer cell line SCC-25 to determine the survival rates. Survival of cell was analyzed using MTT assay. SCC-25 cell line was a human squamous cell carcinoma cell line.\nMTT assay is commonly used to analyze cell proliferation, survival rate of viable cells and cytotoxicity. MTT (3[4,5-dimethylthiazol-2-yl]-2,5-diphenyltetrazolium bromide) is a yellow dye which can be converted to water-insoluble purple formazan on the reductive cleavage of its tetrazolium ring by the succinate tetrazolium reductase in mitochondria of cells. The amount of formazan produced is used to detect the number of viable cells and calculate the survival rates.\nThe SCC-25 cells were cultivated in DMEM/F12(1:1) medium supplemented with 10% fetal bovine serum and 400 ng/ml of hydrocortisone at 37° C., 5% CO2 for 24 hours. Proliferated cells were washed once with PBS, treated with 1× trypsin-EDTA, and centrifuged at 1200 rpm for 5 min. […] The absorbances were measured at 570 nm with an ELISA Reader to determine the survival rates.",
  "data": [
    {"smiles": "COC1=C(OC)C(O)C(C/C=C(\\C)CC/C=C(\\C)CCC=C(C)C)C(C)C1=O", "note": "(stereo not shown) [formula 2, 4-hydroxy-2,3-dimethoxy-6-methyl-5-(3,7,11-trimethyl-dodeca-2,6,10-trienyl)-cyclohex-2-enone]", "values": [
      {"measurement": "IC50", "value": 1.05, "unit": "µg/mL"}
    ]}
  ]
}
